Measured values: patent publication US20250361274A1, “PEPTIDE AND PEPTIDE-CONTAINING AGENT” (PEPTIDREAM INC., priority 2022, published 2025)
Numbered stars: 1 amine (or outer) side, 2 acyl side, 3 side chain; on linkers, the order of the positions; unused ones are H or OH. Bridge positions count the residues as written; N and C are the ends. Square brackets hold non-standard residues; d marks the D form. Side chains are listed from the residue outwards. Peptide text beside a SMILES is read from it. I, II: the chains in the order shown. * marks the point of attachment. ξ: configuration not given here. X10 = N=C(N)NCCC[C@H](CC(=O)[C@H](CCCCNC(=O)N1CCN(CC(=O)O)CC1)N[*:2])C(=O)[*:1]; X9 = O=C([C@H](Cc1ccc(-c2cccc(F)c2)cc1)N[*:1])[*:2]; 3Pal(6-Ph) = N[C@@H](Cc1ccc(-c2ccccc2)nc1)C(=O)O; X3 = O=C(C[C@@H](Cc1ccc(F)cc1)C(=O)[*:1])C[*:2]; Phe(4-COOH) = N[C@@H](Cc1ccc(C(=O)O)cc1)C(=O)O; NMePhe(4-Me) = CN[C@@H](Cc1ccc(C)cc1)C(=O)O; Piperazinyl(4-CH2COOH) = O=C(O)CN1CCN(*)CC1; Bip = N[C@@H](Cc1ccc(-c2ccccc2)cc1)C(=O)O; cisHyp = O=C(O)[C@@H]1C[C@H](O)CN1; Hyp = O=C(O)[C@@H]1C[C@@H](O)CN1; NMeF = CN[C@@H](Cc1ccccc1)C(=O)O; Aad = N[C@@H](CCCC(=O)O)C(=O)O; Cha = N[C@@H](CC1CCCCC1)C(=O)O; β3hC = N[C@@H](CS)CC(=O)O; X5 = O=C(C[*:1])[*:2]; CO = O=C([*:1])[*:2]; ξC = NC(CS)C(=O)O; βAla = NCCC(=O)O

Tests used:
[1] = target: T1, BMP7 (Homo sapiens, UniProt P18075); test: BMP7 signal transduction inhibitory activity: SMAD1 phosphorylation by BMP7 stimulus, A549 cells; format: cell-based; settings: for aLISA BMP7: A549 cells, 10 nM BMP7, peptides of Synthesis 2, peptide 1, 10, 100 nM
T1 sequence (P18075 293-431): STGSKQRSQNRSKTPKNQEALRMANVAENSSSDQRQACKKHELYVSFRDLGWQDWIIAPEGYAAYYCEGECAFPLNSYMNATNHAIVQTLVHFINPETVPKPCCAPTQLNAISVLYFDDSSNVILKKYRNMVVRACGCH
How it was run: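 A549 cells were stimulated with 10 nM BMP7, and the read-out was SMAD1 phosphorylation. Peptides were tested at three concentrations spanning 1 to 1,000 nM, with sets depending on the peptide series. Some peptides were run in eight-point 1/3 dilutions starting from 100 nM or 1,000 nM, with recombinant human Noggin as positive control at matching concentrations.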

[2] = target: T2, BMP4 (Homo sapiens, UniProt P12644); test: BMP4 signal transduction inhibitory activity: SMAD1 phosphorylation by BMP4 stimulus, AlphaLISA SureFire, A549 cells; format: cell-based; settings: for aLISA BMP4: A549 cells, SMAD1 phosphorylation, peptides of Synthesis 2, peptide 0.02, 0.2, 2 nM
T2 sequence (P12644 293-408): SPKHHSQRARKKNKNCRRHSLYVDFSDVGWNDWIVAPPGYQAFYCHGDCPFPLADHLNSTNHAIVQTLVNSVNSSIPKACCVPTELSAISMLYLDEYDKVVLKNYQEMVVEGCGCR

Row | SMILES | aLISA BMP7 [1] | aLISA BMP4 [2] | BMP7 inhibitory activity (in words) [1] | BMP4 inhibitory activity (in words) [2] | aLIZA BMP7 (10 nM) % inh ([1]; BMP7 10 nM stimulus, peptide conc. in assay 100, 300, 1000 nM, class symbols) | aLIZA BMP4 (0.2 nM) % inh ([2]; BMP4 0.2 nM stimulus, peptide conc. in assay 0.02, 0.2, 2 nM, class symbols)
1 | CC(C)[C@@H]1NC(=O)[C@H](Cc2ccc(C(=O)O)cc2)NC(=O)[C@H](C(C)C)NC(=O)[C@H](CCCNC(=N)N)NC(=O)[C@H](CCC(=O)O)NC(=O)CSCC(C(=O)NCC(N)=O)NC(=O)[C@H](CO)NC(=O)[C@H](Cc2ccc(C(=O)O)cc2)NC(=O)[C@H](Cc2ccc(C(=O)O)cc2)NC(=O)[C@H](Cc2ccc(O)cc2)NC(=O)[C@H](Cc2ccc(-c3cccc(F)c3)cc2)NC(=O)[C@@H]2C[C@@H](O)CN2C(=O)[C@H](Cc2ccc(O)cc2)NC(=O)[C@H](CCCCNC(=O)N2CCN(CC(=O)O)CC2)NC(=O)[C@H](Cc2ccc(-c3ccccc3)nc2)NC(=O)[C@H](CCCNC(=N)N)CC(=O)[C@H](CCCCNC(=O)N2CCN(CC(=O)O)CC2)NC1=O (stereo partly shown) [SEQ ID No. 311, ClAc-E-R-V-F4COO-V-KCOpipzaa-R-3Py6Ph-KCOpipzaa-Y-Hyp-Bph3F-Y-F4COO-F4COO-S-C-G-NH2] (I: [3Pal(6-Ph)]K([CO-Piperazinyl(4-CH2COOH)])Y[Hyp][X9]Y[Phe(4-COOH)][Phe(4-COOH)]S[ξC]G-NH2 / II: ERV[Phe(4-COOH)]V; linker I:10-II:N via X5; linker I:N-II:C via X10) | C (showed less than 50% of inhibitory activity in 10 nM-addition zone and showed 50% or more of inhibitory activity in 100 nM-addition zone) | A (showed an inhibitory activity of 50% or more in a zone to which the peptide was added to in an amount of 0.2 nM) | – | – | – | –
2 | CC(C)C[C@@H]1NC(=O)[C@H](Cc2ccccc2)N(C)C(=O)[C@H](CCCC(=O)O)NC(=O)[C@H](CC2CCCCC2)NC(=O)[C@H](CCC(=O)O)NC(=O)[C@H](CC(=O)O)NC(=O)CNC(=O)[C@H](Cc2ccc(-c3ccccc3)nc2)NC(=O)CNC(=O)[C@H](Cc2ccccc2)N(C)C(=O)CNC(=O)[C@H](Cc2ccccc2)NC(=O)CSC[C@@H](C(=O)NCCC(=O)N[C@H](CCC(=O)O)C(=O)O)NC(=O)[C@@H]2C[C@H](O)CN2C1=O [SEQ ID No. 415, ClAc-F-G-MeF-G-3Py6Ph-G-D-E-Cha-Hgl-MeF-L-P4Sh-C-bA-de-OH] ({CH2CO}-FG[NMeF]G[3Pal(6-Ph)]GDE[Cha][Aad][NMeF]L[cisHyp]C[βAla][dE]-OH; thioether N-14) | C (showed less than 50% of inhibitory activity in 10 nM-addition zone and showed 50% or more of inhibitory activity in 100 nM-addition zone) | A (showed an inhibitory activity of 50% or more in a zone to which the peptide was added to in an amount of 0.2 nM) | – | – | – | –
3 | Cc1ccc(C[C@H]2C(=O)N[C@@H](CC(C)C)C(=O)N3C[C@@H](O)C[C@H]3C(=O)N[C@H](CC(=O)NCCC(=O)N[C@H](CCC(=O)O)C(=O)O)CSCC(=O)C[C@@H](Cc3ccc(F)cc3)C(=O)NCC(=O)N(C)[C@@H](Cc3ccccc3)C(=O)NCC(=O)N[C@@H](Cc3ccc(-c4ccccc4)nc3)C(=O)NCC(=O)N[C@@H](CC(=O)O)C(=O)N[C@@H](CCC(=O)O)C(=O)N[C@@H](CC3CCCCC3)C(=O)N[C@@H](CCCC(=O)O)C(=O)N2C)cc1 [SEQ ID No. 417, ClAc-F4F-G-MeF-G-3Py6Ph-G-D-E-Cha-Hgl-MeF4Me-L-P4Sh-C-bA-de-OH] (G[NMeF]G[3Pal(6-Ph)]GDE[Cha][Aad][NMePhe(4-Me)]L[cisHyp][β3hC][βAla][dE]-OH; linker N-13 via X3) | C (showed less than 50% of inhibitory activity in 10 nM-addition zone and showed 50% or more of inhibitory activity in 100 nM-addition zone) | A (showed an inhibitory activity of 50% or more in a zone to which the peptide was added to in an amount of 0.2 nM) | same level of the BMP7 inhibitory activity as Noggin | does not inhibit signal transduction of BMP 4 | – | –
4 | CC(C)[C@@H]1NC(=O)[C@H](Cc2ccc(C(=O)O)cc2)NC(=O)[C@H](C(C)C)NC(=O)[C@H](CCCNC(=N)N)NC(=O)[C@H](CCC(=O)O)NC(=O)CSC[C@@H](C(=O)NCC(N)=O)NC(=O)[C@H](CO)NC(=O)[C@H](Cc2ccc(C(=O)O)cc2)NC(=O)[C@H](Cc2ccc(C(=O)O)cc2)NC(=O)[C@H](Cc2ccc(O)cc2)NC(=O)[C@H](Cc2ccc(-c3ccccc3)cc2)NC(=O)[C@@H]2C[C@@H](O)CN2C(=O)[C@H](Cc2ccc(O)cc2)NC(=O)[C@H](CCCCNC(=O)N2CCN(CC(=O)O)CC2)NC(=O)[C@H](Cc2ccc(-c3ccccc3)nc2)NC(=O)[C@H](CCCNC(=N)N)NC(=O)[C@H](CCCCNC(=O)N2CCN(CC(=O)O)CC2)NC1=O [compound 277] ({CH2CO}-ERV[Phe(4-COOH)]VK([CO-Piperazinyl(4-CH2COOH)])R[3Pal(6-Ph)]K([CO-Piperazinyl(4-CH2COOH)])Y[Hyp][Bip]Y[Phe(4-COOH)][Phe(4-COOH)]SCG-NH2; thioether N-17) | – | – | – | – | H (showed less than 30% of inhibitory activity in 300 nM-addition zone and showed 30% or more of inhibitory activity in 1,000 nM-addition zone) | B (showed less than 30% of inhibitory activity in 0.02 nM-addition zone and showed 30% or more of inhibitory activity in 0.2 nM-addition zone)
